Tests used:
[1] = tested on: P-erbB3, P-erbB2, P-MAPK, P-Akt, erbB3 and erbB2 in SKBR3, BT474 and MDA-MB-453 cells; test: erbB receptor and downstream signaling levels upon SNDX-275 treatment; type: cell-based, human
Excerpt: (§1) SNDX-275 had little effect on apoptosis induction and cell cycle progression in basal breast cancer MDA-MB-468, MDA-MB-231, and BT20 cells. […] Moreover, elevated expression of erbB3 via transfection with erbB3-containing expression vector abrogated SNDX-275-induced inactivation of the downstream signaling, apoptosis, and cell cycle arrest, whereas knockdown of erbB3 and/or erbB2 expression with specific shRNAs enhanced the efficacy of SNDX-275-induced inactivation of the downstream signaling, apoptosis, and cell cycle arrest in SKBR3 and BT474 cells.

[2] = tested on: SKBR3 and BT474 cells; test: erbB3 overexpression or erbB3/erbB2 shRNA knockdown and SNDX-275 response; type: cell-based, human
Excerpt: as §1

[3] = tested on: erbB2-overexpressing SKBR3, BT474, and MDA-MB-453 cells; test: Apoptotic-ELISA, western blots on PARP cleavage and caspase-3, -8, -9 activation, flow cytometry in erbB2-overexpressing cells; type: cell-based, human; details: SNDX-275 5 μM; SKBR3, BT474, MDA-MB-453 cells
Excerpt: as §1

[4] = tested on: human breast cancer cells; details: through induction of TGFβ type II receptor or TRAIL expression, or degradation of DNMT1; cited from earlier work
[5] = tested on: erbB2-overexpressing breast cancer cells; test: cell proliferation (MTS) assays, erbB2-overexpressing vs basal breast cancer cells; type: cell-based, human; details: MTS assay; erbB2-overexpressing breast cancer cells compared to basal cells
Excerpt: as §1

[6] = tested on: basal breast cancer MDA-MB-468, MDA-MB-231, and BT20 cells; test: apoptosis induction and cell cycle progression in basal breast cancer cells; type: cell-based, human; details: MDA-MB-468, MDA-MB-231, BT20 cells
Excerpt: as §1

With `Nc1ccccc1NC(=O)c1ccc(CNC(=O)OCc2cccnc2)cc1` [SNDX-275, N-(2-aminophenyl)-4-(N-(pyridin-3-ylmethoxycarbonyl)aminomethyl)benzamide] as the compound, how does the erbB2 receptor [1] read?
The erbB2 receptor was “lesser reduction”.

What about the erbB3 protein [1] of the same compound?
The erbB3 protein was “rapid decrease”.

What about the “levels of P-erbB3, P-erbB2, P-MAPK, and P-Akt” value [1] of the same compound?
Its value is “significantly decreased”.

And the “efficacy of SNDX-275-induced inactivation of downstream signaling, apoptosis, and cell cycle arrest with erbB3 and/or erbB2 knockdown” value ([2]; specific shRNAs, SKBR3 and BT474 cells)?
The value was “enhanced”.

What about the “SNDX-275-induced inactivation of downstream signaling, apoptosis, and cell cycle arrest with elevated erbB3 expression” value ([2]; transfection with erbB3-containing expression vector) of the same compound?
The value was “abrogated”.

What about the “apoptosis and cell cycle arrest” value [3] of the same compound?
The value was “induced apoptosis and cell cycle G1 arrest”.

What about the proliferation and apoptosis [4] of the same compound?
Its proliferation and apoptosis is “inhibit proliferation and induce apoptosis”.

What about the growth inhibition [5] of the same compound?
Its growth inhibition is “much stronger growth inhibition”.

And the “apoptosis induction and cell cycle progression” value [6]?
The value was “little effect”.
